Experiment [1] has as its target Hepatocyte growth factor-like protein (Homo sapiens) (UniProt P26927). To be noted: at 10 µM.
Experiment [2] addresses Ribosomal protein S6 kinase alpha-3 (Homo sapiens, UniProt P51812). Nature of the experiment: Selectivity interaction (KinomeScan (DiscoverX)) EUB0000092b RPS6KA3. To be noted: at 10 µM.
Experiment [3] deals with Serine/threonine-protein kinase N2 (Homo sapiens, UniProt Q16513). The experiment in a line: Selectivity interaction (KinomeScan (DiscoverX)) EUB0000655a PKN2. To be noted: at 10 µM.
Serine/threonine-protein kinase N2, sequence (Q16513 whole entry, looked up): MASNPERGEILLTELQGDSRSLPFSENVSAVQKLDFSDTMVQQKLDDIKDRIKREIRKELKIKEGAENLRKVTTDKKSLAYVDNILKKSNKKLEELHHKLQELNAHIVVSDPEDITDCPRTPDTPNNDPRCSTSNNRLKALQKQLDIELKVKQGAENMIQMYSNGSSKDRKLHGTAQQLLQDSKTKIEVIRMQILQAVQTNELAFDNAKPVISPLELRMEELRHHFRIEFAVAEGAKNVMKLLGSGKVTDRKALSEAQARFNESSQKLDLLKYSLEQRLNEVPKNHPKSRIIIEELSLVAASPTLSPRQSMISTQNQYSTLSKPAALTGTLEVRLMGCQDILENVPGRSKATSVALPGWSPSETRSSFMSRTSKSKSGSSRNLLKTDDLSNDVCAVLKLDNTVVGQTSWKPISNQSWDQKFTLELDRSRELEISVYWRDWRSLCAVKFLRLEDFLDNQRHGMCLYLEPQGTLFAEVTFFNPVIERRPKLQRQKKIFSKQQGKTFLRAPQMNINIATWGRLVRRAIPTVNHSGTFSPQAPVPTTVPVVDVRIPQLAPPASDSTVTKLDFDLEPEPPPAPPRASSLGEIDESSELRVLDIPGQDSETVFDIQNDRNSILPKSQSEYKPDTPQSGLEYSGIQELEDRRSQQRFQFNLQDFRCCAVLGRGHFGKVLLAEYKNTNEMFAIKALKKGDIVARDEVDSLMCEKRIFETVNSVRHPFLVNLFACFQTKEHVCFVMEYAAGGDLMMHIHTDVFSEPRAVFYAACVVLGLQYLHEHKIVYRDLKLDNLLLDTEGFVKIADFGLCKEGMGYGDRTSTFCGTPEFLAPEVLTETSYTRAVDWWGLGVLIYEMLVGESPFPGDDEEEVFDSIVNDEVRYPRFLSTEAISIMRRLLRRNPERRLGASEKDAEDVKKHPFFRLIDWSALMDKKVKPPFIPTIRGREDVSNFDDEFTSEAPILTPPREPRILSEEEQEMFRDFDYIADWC
The target of experiment [4] is Mitogen-activated protein kinase kinase kinase 4 (Homo sapiens) (UniProt Q9Y6R4). Nature of the experiment: Selectivity interaction (KinomeScan (DiscoverX)) EUB0000695a MAP3K4. To be noted: at 100 nM.
Mitogen-activated protein kinase kinase kinase 4 (Homo sapiens), sequence (Q9Y6R4 whole entry): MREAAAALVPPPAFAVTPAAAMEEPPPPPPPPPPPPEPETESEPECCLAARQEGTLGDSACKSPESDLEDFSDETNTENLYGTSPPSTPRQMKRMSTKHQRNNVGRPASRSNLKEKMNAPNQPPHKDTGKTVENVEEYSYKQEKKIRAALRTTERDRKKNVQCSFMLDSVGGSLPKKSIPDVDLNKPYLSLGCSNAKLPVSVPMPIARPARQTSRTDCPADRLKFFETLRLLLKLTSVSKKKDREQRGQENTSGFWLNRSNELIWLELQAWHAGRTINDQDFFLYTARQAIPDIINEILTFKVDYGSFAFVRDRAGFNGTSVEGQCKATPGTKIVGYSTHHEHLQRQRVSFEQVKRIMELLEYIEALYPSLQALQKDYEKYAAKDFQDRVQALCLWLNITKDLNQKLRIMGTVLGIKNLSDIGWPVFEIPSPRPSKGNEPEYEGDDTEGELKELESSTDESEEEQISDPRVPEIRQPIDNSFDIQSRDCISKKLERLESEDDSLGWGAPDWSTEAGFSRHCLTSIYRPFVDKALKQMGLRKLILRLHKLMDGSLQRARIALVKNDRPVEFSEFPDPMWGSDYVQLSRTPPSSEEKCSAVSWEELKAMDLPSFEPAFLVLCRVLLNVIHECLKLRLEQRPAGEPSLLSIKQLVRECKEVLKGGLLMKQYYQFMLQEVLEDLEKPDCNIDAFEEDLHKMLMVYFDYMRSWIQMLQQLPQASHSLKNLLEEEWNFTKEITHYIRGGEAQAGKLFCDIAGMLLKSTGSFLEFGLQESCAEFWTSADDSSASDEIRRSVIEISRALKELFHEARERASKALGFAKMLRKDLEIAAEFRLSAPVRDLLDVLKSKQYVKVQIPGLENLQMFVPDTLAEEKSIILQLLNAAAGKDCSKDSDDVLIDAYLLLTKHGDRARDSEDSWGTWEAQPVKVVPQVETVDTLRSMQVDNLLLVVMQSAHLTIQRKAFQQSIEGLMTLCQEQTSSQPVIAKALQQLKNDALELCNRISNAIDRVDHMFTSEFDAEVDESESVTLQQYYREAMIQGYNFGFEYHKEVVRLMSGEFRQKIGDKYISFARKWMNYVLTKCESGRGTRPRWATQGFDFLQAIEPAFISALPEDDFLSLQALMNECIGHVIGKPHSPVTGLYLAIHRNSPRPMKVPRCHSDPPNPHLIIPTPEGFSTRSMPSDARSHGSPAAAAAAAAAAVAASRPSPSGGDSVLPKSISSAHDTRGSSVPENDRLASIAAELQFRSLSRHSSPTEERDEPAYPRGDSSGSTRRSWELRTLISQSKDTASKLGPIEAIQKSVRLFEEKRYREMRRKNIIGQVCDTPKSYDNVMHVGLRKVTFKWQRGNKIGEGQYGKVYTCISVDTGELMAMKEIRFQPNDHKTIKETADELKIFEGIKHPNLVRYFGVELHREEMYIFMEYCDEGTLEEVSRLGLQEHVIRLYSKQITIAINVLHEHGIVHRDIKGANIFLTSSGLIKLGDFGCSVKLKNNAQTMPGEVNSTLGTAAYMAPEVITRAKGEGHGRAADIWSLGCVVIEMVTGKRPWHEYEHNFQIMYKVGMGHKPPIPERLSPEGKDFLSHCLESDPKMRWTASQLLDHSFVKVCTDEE
In experiment [5] the target is Transcription intermediary factor 1-beta (Homo sapiens) (UniProt Q13263). Nature of the experiment: Selectivity interaction (Bromodomain panel (DSF asssay)) EUB0000270b TRIM28.
For another experiment, the target named is Ephrin type-A receptor 4 (Homo sapiens, UniProt P54764). Nature of the experiment: Selectivity interaction (KinomeScan (DiscoverX)) EUB0000045b EPHA4.
Ephrin type-A receptor 4, sequence (P54764 whole entry): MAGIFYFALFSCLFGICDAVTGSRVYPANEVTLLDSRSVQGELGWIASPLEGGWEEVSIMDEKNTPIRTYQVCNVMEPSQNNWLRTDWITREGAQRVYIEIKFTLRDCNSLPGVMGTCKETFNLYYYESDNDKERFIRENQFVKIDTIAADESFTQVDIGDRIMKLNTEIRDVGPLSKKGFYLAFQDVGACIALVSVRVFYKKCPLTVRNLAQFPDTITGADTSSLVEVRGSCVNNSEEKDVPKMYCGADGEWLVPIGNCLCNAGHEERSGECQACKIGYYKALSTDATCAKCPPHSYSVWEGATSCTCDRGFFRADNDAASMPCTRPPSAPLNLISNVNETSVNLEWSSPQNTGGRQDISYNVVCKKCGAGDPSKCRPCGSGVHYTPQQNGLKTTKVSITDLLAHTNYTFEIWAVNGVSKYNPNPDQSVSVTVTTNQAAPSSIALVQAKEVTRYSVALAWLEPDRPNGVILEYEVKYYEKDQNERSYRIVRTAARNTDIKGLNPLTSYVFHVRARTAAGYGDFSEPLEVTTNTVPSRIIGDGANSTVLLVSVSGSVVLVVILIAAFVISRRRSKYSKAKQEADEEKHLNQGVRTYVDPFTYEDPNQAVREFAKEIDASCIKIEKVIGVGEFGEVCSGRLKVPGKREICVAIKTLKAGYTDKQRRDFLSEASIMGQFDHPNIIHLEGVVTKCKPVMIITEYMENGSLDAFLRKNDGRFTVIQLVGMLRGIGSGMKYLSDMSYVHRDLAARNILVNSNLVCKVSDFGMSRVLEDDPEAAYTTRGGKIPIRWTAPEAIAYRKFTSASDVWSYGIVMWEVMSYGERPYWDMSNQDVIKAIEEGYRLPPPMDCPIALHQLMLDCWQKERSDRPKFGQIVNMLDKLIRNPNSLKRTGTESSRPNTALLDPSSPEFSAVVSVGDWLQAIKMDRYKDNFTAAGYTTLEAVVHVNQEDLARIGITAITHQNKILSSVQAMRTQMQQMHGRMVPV
Experiment [6] deals with T1, Receptor-interacting serine/threonine-protein kinase 1 (Homo sapiens) (UniProt Q13546).
T1 sequence (whole entry): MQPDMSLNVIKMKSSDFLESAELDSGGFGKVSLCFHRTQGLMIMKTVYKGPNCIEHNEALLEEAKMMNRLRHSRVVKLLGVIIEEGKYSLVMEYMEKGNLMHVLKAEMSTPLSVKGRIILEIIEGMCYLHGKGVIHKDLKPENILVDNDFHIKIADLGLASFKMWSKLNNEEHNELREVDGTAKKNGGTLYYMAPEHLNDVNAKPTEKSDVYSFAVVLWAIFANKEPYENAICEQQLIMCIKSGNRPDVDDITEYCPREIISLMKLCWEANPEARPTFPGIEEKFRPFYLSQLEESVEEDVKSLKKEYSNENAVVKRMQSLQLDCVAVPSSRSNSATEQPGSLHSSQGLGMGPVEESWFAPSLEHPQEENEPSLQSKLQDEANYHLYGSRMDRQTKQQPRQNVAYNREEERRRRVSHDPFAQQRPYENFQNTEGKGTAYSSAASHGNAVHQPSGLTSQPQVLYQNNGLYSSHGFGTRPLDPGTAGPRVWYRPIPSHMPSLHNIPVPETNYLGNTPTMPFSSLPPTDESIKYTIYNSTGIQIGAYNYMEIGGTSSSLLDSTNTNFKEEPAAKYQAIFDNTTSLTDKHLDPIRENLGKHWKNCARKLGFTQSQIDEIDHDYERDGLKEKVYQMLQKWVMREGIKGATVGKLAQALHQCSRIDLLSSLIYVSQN
The experiment in a line: Selectivity interaction (KinomeScan (DiscoverX)) EUB0000607a RIPK1. To be noted: at 10 µM.

Experiment [7] addresses T2, Phosphatidylinositol 5-phosphate 4-kinase type-2 beta (Homo sapiens) (UniProt P78356).
T2 sequence (whole entry): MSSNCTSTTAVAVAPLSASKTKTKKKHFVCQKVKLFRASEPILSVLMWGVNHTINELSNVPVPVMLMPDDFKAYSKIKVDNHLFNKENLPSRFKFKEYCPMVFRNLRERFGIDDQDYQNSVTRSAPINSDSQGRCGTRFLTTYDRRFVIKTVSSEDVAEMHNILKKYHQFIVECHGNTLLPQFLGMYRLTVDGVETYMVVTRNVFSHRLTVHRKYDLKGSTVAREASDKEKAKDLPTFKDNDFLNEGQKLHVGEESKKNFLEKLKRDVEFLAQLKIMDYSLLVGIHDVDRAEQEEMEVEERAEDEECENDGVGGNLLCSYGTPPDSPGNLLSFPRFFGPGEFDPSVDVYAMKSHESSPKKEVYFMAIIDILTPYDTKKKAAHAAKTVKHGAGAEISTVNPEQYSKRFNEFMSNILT
The experiment in a line: Selectivity interaction (KinomeScan (DiscoverX)) EUB0000229b PIP4K2B. To be noted: at 10 µM.

Experiment [8] addresses Mitogen-activated protein kinase kinase kinase 10 (Homo sapiens) (UniProt Q02779). The experiment in a line: Selectivity interaction (KinomeScan (DiscoverX)) EUB0001619a MAP3K10. To be noted: at 1 µM.
The target of experiment [9] is T3, Ribosomal protein S6 kinase delta-1 (Homo sapiens) (UniProt Q96S38).
T3 sequence (whole entry): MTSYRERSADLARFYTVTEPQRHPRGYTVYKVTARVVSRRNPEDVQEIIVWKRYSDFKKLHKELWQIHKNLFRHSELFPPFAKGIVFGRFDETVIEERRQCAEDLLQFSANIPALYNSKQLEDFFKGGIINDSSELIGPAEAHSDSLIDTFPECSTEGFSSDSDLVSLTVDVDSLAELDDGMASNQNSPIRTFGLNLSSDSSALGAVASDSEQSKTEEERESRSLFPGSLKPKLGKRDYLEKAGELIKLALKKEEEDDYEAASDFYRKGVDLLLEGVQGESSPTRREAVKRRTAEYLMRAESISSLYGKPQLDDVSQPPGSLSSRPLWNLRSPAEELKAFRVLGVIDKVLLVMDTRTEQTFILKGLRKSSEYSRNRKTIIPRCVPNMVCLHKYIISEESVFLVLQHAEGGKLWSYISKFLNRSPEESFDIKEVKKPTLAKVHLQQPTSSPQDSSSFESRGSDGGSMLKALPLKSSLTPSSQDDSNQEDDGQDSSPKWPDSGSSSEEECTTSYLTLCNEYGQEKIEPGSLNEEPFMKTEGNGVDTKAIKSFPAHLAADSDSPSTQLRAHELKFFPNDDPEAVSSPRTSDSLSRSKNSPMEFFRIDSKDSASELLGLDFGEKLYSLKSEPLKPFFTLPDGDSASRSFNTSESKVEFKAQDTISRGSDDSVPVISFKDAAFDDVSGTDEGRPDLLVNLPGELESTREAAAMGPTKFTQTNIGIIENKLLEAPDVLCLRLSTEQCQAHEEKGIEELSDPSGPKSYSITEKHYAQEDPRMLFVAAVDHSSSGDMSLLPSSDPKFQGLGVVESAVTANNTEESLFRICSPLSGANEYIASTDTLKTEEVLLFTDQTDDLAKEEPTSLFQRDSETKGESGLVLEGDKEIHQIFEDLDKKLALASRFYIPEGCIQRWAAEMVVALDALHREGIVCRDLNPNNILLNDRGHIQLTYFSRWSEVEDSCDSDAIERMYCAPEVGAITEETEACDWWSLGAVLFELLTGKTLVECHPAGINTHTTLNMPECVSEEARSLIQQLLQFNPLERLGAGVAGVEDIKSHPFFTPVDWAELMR
The experiment in a line: Selectivity interaction (ActivX KiNativ screen (ex vivo kinase selectivity in human PBMCs)) EUB0001619a RPS6KC1. The format is cell-based. To be noted: PBMC, at 1 µM.

9 compounds from ChEMBL document CHEMBL5465560, “Selectivity Literature for EUbOPEN Chemogenomic Library” (2024) can be followed below.

Mitogen-activated protein kinase kinase kinase 10 (Homo sapiens), sequence (Q02779 whole entry, looked up): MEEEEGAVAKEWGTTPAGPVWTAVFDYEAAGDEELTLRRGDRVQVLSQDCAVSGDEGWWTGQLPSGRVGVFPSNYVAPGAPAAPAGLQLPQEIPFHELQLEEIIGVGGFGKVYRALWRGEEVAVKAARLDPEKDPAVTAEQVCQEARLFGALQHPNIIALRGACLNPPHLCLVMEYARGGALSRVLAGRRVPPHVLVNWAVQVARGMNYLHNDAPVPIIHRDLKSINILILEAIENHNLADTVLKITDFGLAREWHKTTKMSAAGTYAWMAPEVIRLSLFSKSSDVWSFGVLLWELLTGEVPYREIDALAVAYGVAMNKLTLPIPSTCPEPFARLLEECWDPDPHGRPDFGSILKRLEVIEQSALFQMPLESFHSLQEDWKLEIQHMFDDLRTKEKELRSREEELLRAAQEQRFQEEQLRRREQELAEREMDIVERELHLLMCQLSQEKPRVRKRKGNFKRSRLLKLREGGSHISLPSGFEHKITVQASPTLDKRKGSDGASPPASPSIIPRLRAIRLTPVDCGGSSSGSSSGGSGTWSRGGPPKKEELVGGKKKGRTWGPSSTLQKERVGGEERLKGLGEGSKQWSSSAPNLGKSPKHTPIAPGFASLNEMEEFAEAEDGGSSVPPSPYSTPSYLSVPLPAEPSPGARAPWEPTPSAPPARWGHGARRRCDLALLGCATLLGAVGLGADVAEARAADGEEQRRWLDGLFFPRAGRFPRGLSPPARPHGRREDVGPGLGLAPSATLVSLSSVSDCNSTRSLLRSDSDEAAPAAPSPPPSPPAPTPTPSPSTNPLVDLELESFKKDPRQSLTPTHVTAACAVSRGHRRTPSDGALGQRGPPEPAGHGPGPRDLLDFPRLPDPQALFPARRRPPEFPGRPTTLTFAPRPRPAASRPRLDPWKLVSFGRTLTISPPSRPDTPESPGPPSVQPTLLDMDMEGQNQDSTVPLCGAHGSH

Take `CCN(CC)CCCCNc1ncc2cc(-c3cc(OC)cc(OC)c3)c(NC(=O)NC(C)(C)C)nc2n1`: the % of control in experiment [1] came out at 100%. As to `CCC(=O)N1CCN(c2ccc(-n3c(=O)ccc4cnc5ccc(-c6cnc7ccccc7c6)cc5c43)cc2C(F)(F)F)CC1`, the % of control in experiment [2] turned out to be 38%. In [3], `CN(C)CCOc1ccc(-c2nc(-c3ccncc3)c(-c3ccc4c(c3)CC/C4=N\O)[nH]2)cc1` came in with a % of control of 100%.

On to `Cc1cc(F)c(C(=O)Nc2cccc(-c3nncn3C(C)C)n2)cc1-n1cnc(C2CC2)c1`, for which, in [4], the % of control stood at 92%. Take `Cc1cc(CN)cc(C)c1-c1ncn(C)c1-c1cncn1C`: in experiment [5], the dTM is -1.65 K. Turning to `C=CC(=O)Nc1cc(-n2c(=O)ccc3cnc4ccc(-c5ccc(NS(C)(=O)=O)cc5)cc4c32)ccc1C`, the % of control is 89% on Ephrin type-A receptor 4 (at 1 µM) and 100% on Ephrin type-A receptor 4 (at 10 µM). With `CNC(=O)Nc1ccc(-c2nc(N3CC4CCC(C3)O4)c3cnn(C4CCC5(CC4)OCCO5)c3n2)cc1`, the % of control in [6] is 83%. `COc1cc(N(C)c2ccnc3ccc(C(F)(F)F)cc23)cc(OC)c1OC` returned a % binding in [7] of 100%. Compound `N#Cc1cccc(-c2c[nH]c3ncnc(N4CCOCC4)c23)c1` gave a % of control in experiment [8] of 100%. Further, the % of inhibition in experiment [9] is -2%.
